Measurements published in patent publication US10098346B2, “Diphenyliodonium salts as sulfidogenesis inhibitors and antimicrobials” (Ecolab USA Inc., priority 2015, dated 2018).

Tests used:
Format in all cases: cell-based
[1] = system: hydrogen sulfide production by sulfur utilizing prokaryote; assay: Hydrogen sulfide test kit (HACH, Model HS-C) in injection water aliquots; conditions: injection water (synthetic seawater, produced water, lactate, thiosulfate); 0.1-100 ppm; up to 305 days
Description: (§1) A hydrogen sulfide test kit (HACH, Model HS-C) and an AccuCount test kit (available from Nalco Champion) were used to test the efficacy of diphenyliodonium chloride (DPIC) and diphenyliodonium nitrate (DPIN) in 100 mL aliquots of injection water collected by mixing synthetic seawater, produced water from an oil and gas production facility off-shore California, USA, lactate, and thiosulfate. The results of the testing of DPIC at 11 days, 84 days, and 305 days at concentrations of 0.1 ppm, 1 ppm, 10 ppm, and 100 ppm are shown in FIG. 2. The results of the testing of DPIC at 84 days and 305 days at concentrations of 0.1 ppm, 1 ppm, and 10 ppm are shown in FIG. 3. The results of the testing of DPIC and DPIN at 1 day, 7 days, and 14 days at concentrations of 0.1 ppm, 1 ppm, and 10 ppm in synthetic seawater are shown in the FIG. 4. The results of testing of DPIC and DPIN at 4 hours, 1 day, and 30 days at concentrations of 10 ppm and 100 ppm in 80% produced water, 50% produced water, and 20% produced water are shown in FIG. 5.

active microbes = assay: AccuCount test kit, level of active microbes in injection water aliquots; conditions: injection water (synthetic seawater, produced water, lactate, thiosulfate); 0.1-100 ppm; up to 305 days
Description: as §1

[2] = Next-generation DNA sequencing, relative abundance of each genus in treated samples; conditions: DPIC 1 ppm - 305 Days
[3] = system: sulfur reducing prokaryotes; assay: as above; conditions: 1 ppm, 305 days

Structure (SMILES) | reducing the concentration hydrogen sulfide [1] | reducing the level of active microbes (active microbes) | Relative Abundance, Acholeplasma sp. (APB) [2] | Relative Abundance, Citrobacter sp. (APB) [2] | Relative Abundance, Cryptanaerobacter sp. (APB) [2] | Relative Abundance, Kluyvera sp. (APB/GHB/NRB) [2] | Relative Abundance, Mangrovibacter sp. (NRB) [2] | Relative Abundance, Proteiniphilum sp. (APB) [2] | Relative Abundance, Pseudomonas sp. (NRB/GHB) [2] | Relative Abundance, Raoultella sp. (APB) [2] | Relative Abundance, Serratia sp. (NRB/GHB) [2] | Relative Abundance, Shimwellia sp. (APB) [2] | Relative Abundance, Sphaerochaeta sp. (APB) [2] | Relative Abundance, Thermovirga sp. (SRB) [2] | sulfur reducing prokaryotes by DNA sequencing [3]
[Cl-].c1ccc([I+]c2ccccc2)cc1 [DPIC, diphenyliodonium chloride] | effective | effective | 0.2% | 0.3% | 0.1% | 3.5% | 0.2% | 0.3% | 0.5% | 28.8% | 59.3% | 6.7% | 0.2% | 0.1% | no detectable
O=[N+]([O-])[O-].c1ccc([I+]c2ccccc2)cc1 [DPIN, diphenyliodonium nitrate] | effective | effective | – | – | – | – | – | – | – | – | – | – | – | – | –
